Results published in patent US10449181B2, “Treatment of autism and autism spectrum disorders (ASD)” (priority 2016, dated 2019).
“Also recorded” adds a separate entry of the source.

Tests used:
[1] = system: subject with Autism Spectrum Disorder; assay: Oral zolpidem dosing regimen in a subject with ASD; type: in vivo, human
Description: Thus, classic BZs and zolpidem are likely to have different requirements for high-affinity binding to GABAA receptors (Sancar et al. 2007). […] Studies have shown that the sedative-hypnotic and anticonvulsant activities of zolpidem are due to its action on α1-GABAA receptors and not on α2- or α3-GABAA receptors (Crestani F et al., 2000).
Especially, the relief of the so-called “psychic pain” or “phantom pain” which was by far the most debilitating symptom of ASD with respect to the subject, was profound after the first dose.

α1-GABAA receptors = α1-GABAA receptors (Homo sapiens, UniProt P14867+P18507); conditions: recombinant receptors; cited from earlier work
Sequence of α1-GABAA receptors (P18507 40-475, one chain of several): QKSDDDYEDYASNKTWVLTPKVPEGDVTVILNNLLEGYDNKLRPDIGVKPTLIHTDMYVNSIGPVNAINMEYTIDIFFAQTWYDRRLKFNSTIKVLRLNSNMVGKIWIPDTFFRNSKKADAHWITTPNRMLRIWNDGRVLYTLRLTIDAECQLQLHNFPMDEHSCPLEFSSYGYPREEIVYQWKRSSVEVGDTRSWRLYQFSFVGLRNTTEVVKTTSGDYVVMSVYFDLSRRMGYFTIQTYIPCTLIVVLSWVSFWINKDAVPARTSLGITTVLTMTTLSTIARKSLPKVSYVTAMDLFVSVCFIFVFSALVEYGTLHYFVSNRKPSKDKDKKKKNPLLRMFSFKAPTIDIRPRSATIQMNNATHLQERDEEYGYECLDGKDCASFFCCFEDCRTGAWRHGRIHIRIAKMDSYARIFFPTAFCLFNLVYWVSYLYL

α2-GABAA receptors = α2-GABAA receptors (Homo sapiens, UniProt P18507+P47869); conditions: recombinant receptors; cited from earlier work
Sequence of α2-GABAA receptors (P47869 29-451, one chain of several): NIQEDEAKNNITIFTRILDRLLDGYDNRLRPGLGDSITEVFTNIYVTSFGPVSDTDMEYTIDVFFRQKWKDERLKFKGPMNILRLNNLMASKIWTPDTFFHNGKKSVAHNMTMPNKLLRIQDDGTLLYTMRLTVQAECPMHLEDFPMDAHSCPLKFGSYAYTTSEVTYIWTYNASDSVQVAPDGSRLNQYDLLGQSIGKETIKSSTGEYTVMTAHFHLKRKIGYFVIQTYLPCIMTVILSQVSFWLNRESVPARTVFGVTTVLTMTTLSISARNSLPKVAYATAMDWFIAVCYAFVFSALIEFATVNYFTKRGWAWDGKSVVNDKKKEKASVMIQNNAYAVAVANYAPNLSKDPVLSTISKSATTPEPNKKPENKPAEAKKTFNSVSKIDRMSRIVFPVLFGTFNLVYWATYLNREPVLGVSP
Sequence of α2-GABAA receptors (P18507 40-475, one chain of several): as the sequence (P18507 40-475, one chain of several) above

α3-GABAA receptors = α3-GABAA receptors (Homo sapiens, UniProt P18507+P34903); conditions: recombinant receptors; cited from earlier work
Sequence of α3-GABAA receptors (P34903 29-492, one chain of several): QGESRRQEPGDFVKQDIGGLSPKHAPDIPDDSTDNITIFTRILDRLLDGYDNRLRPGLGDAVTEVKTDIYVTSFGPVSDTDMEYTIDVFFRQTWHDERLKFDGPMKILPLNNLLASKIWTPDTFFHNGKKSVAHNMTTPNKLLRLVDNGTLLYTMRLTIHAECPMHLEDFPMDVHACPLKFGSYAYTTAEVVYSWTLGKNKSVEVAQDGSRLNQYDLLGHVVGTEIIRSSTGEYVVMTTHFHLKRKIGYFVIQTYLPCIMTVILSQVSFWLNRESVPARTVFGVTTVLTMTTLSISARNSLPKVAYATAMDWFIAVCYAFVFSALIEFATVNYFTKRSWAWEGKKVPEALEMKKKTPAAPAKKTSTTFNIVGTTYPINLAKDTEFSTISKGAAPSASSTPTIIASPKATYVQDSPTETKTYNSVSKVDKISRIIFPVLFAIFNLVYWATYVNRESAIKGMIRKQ
Sequence of α3-GABAA receptors (P18507 40-475, one chain of several): as the sequence (P18507 40-475, one chain of several) above

α5-GABAA receptors = target: T1, α5-GABAA receptors (Homo sapiens, UniProt P31644); conditions: recombinant receptors; cited from earlier work
T1 sequence (P31644 32-462): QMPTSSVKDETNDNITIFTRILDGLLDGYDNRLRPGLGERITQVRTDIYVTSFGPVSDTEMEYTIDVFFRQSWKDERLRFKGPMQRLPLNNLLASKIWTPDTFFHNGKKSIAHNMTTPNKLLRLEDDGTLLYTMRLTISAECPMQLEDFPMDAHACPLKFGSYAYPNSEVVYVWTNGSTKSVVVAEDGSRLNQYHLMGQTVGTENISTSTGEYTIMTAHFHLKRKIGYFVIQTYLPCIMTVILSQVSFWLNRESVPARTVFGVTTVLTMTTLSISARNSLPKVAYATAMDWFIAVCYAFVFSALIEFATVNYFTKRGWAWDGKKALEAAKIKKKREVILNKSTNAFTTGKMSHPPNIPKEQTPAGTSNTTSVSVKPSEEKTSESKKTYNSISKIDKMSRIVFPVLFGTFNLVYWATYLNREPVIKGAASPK

α1β3 GABAA receptors = target: T2, α1β3 GABAA receptors (Homo sapiens, UniProt P14867); conditions: cited from earlier work
T2 sequence (P14867 28-456): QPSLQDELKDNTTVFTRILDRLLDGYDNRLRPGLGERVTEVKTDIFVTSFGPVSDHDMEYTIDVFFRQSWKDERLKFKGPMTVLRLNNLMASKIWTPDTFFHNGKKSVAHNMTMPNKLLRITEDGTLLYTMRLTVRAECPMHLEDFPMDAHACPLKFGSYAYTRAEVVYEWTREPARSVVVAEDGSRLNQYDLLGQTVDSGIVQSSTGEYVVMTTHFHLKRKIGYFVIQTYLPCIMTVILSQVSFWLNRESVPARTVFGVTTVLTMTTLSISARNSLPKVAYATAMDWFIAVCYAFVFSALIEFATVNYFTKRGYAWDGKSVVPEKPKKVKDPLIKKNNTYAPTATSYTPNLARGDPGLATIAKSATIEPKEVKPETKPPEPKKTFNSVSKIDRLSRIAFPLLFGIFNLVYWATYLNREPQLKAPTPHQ
T2 sequence (P28472 26-473 partner): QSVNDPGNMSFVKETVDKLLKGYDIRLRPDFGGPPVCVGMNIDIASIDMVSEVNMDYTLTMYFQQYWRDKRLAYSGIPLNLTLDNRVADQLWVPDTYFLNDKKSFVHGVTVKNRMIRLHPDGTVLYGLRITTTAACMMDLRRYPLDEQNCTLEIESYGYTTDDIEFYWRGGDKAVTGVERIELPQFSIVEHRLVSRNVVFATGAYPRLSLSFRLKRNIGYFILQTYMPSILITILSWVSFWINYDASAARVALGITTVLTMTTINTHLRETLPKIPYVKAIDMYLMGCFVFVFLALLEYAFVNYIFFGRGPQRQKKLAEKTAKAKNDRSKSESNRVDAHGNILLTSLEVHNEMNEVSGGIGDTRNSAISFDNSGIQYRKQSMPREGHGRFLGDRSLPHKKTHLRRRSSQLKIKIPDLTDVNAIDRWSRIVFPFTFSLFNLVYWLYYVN

autistic children = conditions: eight week trial, 25 autistic children, unpublished data, not placebo-controlled; cited from earlier work

## Cc1ccc(-c2nc3ccc(C)cn3c2CC(=O)N(C)C)cc1 [zolpidem]
[1]; after the first dose, one subject
  relief of the so-called psychic pain or phantom pain: profound
[1]; oral, at least 30 mg every 3.5 hours around the clock, at least one subject
  attenuation of at least one indicium of an ASD: almost complete attenuation; also recorded: immediate and almost complete
[1]; oral, at least 30 mg every 3.5 hours around the clock, one subject
  duration of symptom-free state while on zolpidem: symptom-free and leading a normal life for at least five years
α1-GABAA receptors
  affinity to α1-GABAA receptors: high affinity
α2-GABAA receptors
  affinity to α2-GABAA receptors: intermediate affinity
α3-GABAA receptors
  affinity to α3-GABAA receptors: intermediate affinity
α5-GABAA receptors
  binding to α5-GABAA receptors: fails to bind
α1β3 GABAA receptors
  modulation of α1β3 GABAA receptors: potent stoichiometry-selective modulator

## NC[C@H](CC(=O)O)c1ccc(Cl)cc1 [Arbaclofen]
Autistic children
  measures of irritability and communications: significant improvements
